Values of other authors in patent US5358942A, “Inhibition of protein kinase C with Cyclic phosphonate compounds” (Louisiana State University, priority 1993, dated 1994).

System: carnitine palmitoyltransferase (CPT)

inhibition of carnitine palmitoyltransferase (CPT): potently inhibits
Structure (SMILES): CCCCCCCCCCCCCCC[C@@]1(O)C[N+](C)(C)C[C@H](CC(=O)O)O1.[Br-] [Hemipalmitoyl carnitinium (HPC), Hemipalmitoyl carnitinium]
